Numbers after ± are expanded uncertainties.
Experiments:
[1] = refractive index (Na D-line) (dimensionless); settings: 293.15 K; 101.33 kPa; Liquid; Standard Abbe refractometry
[2] = Liquid; for mass density: 293.15 K, 101.33 kPa, Vibrating tube method; for vapor or sublimation pressure: Ebulliometric method (Recirculating still)
[3] = Boiling temperature at pressure P; settings: Liquid, Ebulliometric method (Recirculating still)

| Structure (SMILES) | refractive index [1] | mass density [2] [kg/m3] | vapor or sublimation pressure ([2]; 343.15 K) [kPa] | vapor or sublimation pressure ([2]; 358.15 K) [kPa] | vapor or sublimation pressure ([2]; 363.15 K) [kPa] | Boiling temperature at pressure P ([3]; 19.9 kPa) [°C] | Boiling temperature at pressure P ([3]; 34.33 kPa) [°C] | Boiling temperature at pressure P ([3]; 39.89 kPa) [°C] | Boiling temperature at pressure P ([3]; 49.89 kPa) [°C] | Boiling temperature at pressure P ([3]; 58.58 kPa) [°C] | Boiling temperature at pressure P ([3]; 69.3 kPa) [°C] | Boiling temperature at pressure P ([3]; 79.88 kPa) [°C] | Boiling temperature at pressure P ([3]; 89.88 kPa) [°C] | Boiling temperature at pressure P ([3]; 98.88 kPa) [°C] |
| --- | --- | --- | --- | --- | --- | --- | --- | --- | --- | --- | --- | --- | --- | --- |
| CCCC(C)=O [pentan-2-one] | 1.3906 ± 0.0009 | 805.86 ± 2 | 34.4 ± 0.32 | 58.64 ± 0.39 | 69.36 ± 0.46 | 56.44 ± 0.22 | 70.32 ± 0.22 | 74.40 ± 0.19 | 80.62 ± 0.18 | 85.30 ± 0.17 | 90.4 ± 0.17 | 94.76 ± 0.17 | 98.53 ± 0.16 | 101.59 ± 0.16 |
| CC(C)CO [2-methyl-1-propanol] | 1.3959 ± 0.0009 | 801.49 ± 2 |  |  |  |  |  |  |  |  |  |  |  |  |

— the NIST ThermoML archive (doi:10.1021/acs.jced.8b00517)
